Test results taken from US4145253A, “Process for producing fortimicin factors” (Abbott Laboratories, priority 1976, dated 1979).
≈ marks a conversion by molar mass, not a printed value. Entries after “also recorded” stand apart in the source; their conditions may differ. Where a name gives a salt, the structure may show the parent alone. Read-outs that look alike come from different tables or passages of the source.

Experiments:
[1] = test system: Bacillus subtilis No. 10707; test: antibacterial activity of preparations (paper disc method); format: cell-based
Method: After the completion of fermentation, the culture liquor is adjusted to pH 2.5 with concentrated sulfuric acid and is stirred for 30 minutes. Thereafter, about 7 kg of a filter aid, Radiolite No. 600 (product of Showa Kagaku Kogyo Co., Ltd.) is added to the culture liquor and the microbial cells are removed by filtration. The filtrate is adjusted to pH 7.5 by the addition of 6N sodium hydroxide, and then passed through a column packed with about 20 l of a cation exchange resin, Amberlite IRC-50 (ammonium form). The active principles are adsorbed on the resin, and the effluent is discarded. After the resin is washed with water, elution of the active principles is carried out with 0.5N aqueous ammonia. The eluate is subjected to determination of activity by a paper disc method using an agar plate of Bacillus subtilis No. 10707. Fractions showing an activity are combined and concentrated under reduced pressure to about 1 L. The concentrate is then passed through a column packed with 500 ml of an anion exchange resin, Dowex 1 × 2 (OH form) and then about 2 L of water is passed through the column. In this manner, impurities are removed and the active principles are eluted with water. The active fractions are combined and concentrated under reduced pressure to about 100 ml. The concentrate is passed through a column packed with about 50 ml of active carbon powder whereby the active principles are adsorbed. The column is washed with water and the effluent and washings are discarded. Elution is carried out with 0.2N sulfuric acid. The eluate is subjected to determination of activity by a paper disc method using Bacillus subtilis No. 10707. The active fractions are combined and passed through a column of a resin, Dowex 44 (OH form) and elution of the active principles is carried out with water. The active fractions are combined and concentrated to about 50 ml. The concentrate is freeze-dried to obtain a crude powder of Fortimicin complex. The yield of the crude powder is about 35 g and the activity is 580 unit/mg (activity of 1 mg of the pure preparate corresponds to 1,000 units).
About 500 ml of silica gel is suspended in a solvent comprising isopropanol, chloroform, and concentrated aqueous ammonia (4:2:1 by volume) and packed in a glass column as a tight, uniform layer. Thereafter, the column is thoroughly washed with the same solvent. Then 10 g of the crude powder obtained in the above step B is charged over the silica gel to form a uniform, thin layer. After the crude powder is charged, the same solvent is poured gradually into the column from the top and thereafter elution is carried out continuously at a flow rate of about 50 ml/hour. The eluate is recovered in 20 ml fractions and each of the fractions is subjected to determination of activity by the paper disc method using Bacillus subtilis No. 10707. First, Fortimicin B is eluted followed by Fortimicin A. Then, the elution is continued and after Fortimicin C is eluted, Fortimicin D is eluted. The active fractions are subjected to thin layer chromatography and the fractions containing Fortimicin D are combined and concentrated under reduced pressure to sufficiently remove the solvent.
About 500 ml of silica gel, suspended in a solvent comprising isopropanol, chloroform, and concentrated aqueous ammonia (4:2:1 by volume) is packed in a glass column as a tight, uniform layer. Thereafter, the column is thoroughly washed with the same solvent. Then the crude powder obtained above is charged over the silica gel in a uniform thin layer and the same solvent is poured gradually into the column from the top and thereafter elution is carried out continuously at a flow rate of about 50 ml/hour. The eluate is recovered in 20 ml fractions and each of the fractions is subjected to determination of activity by the paper disc method using Bacillus subtilis No. 10707. First, Fortimicin B is eluted followed by Fortimicin KE. […]

LD50 for dd-mouse = conditions: in vivo; dd-mouse weighing 20 ± 1 g
Description: Further, Fortimicin D is expected to have a therapeutic effect on various infections (in human beings and in animals) induced by the above-mentioned various bacteria. […] With such antibacterial properties, Fortimicin D is applicable to medicinal purposes.

[2] = test system: Staphylococcus aureus ATCC 6538P; test: antibacterial spectrum, MIC by agar dilution method; format: cell-based; conditions: ATCC6538P, pH 8.0, read-out: Minimum Inhibitory Concentration
Description: (§1) Table 4 illustrates the antibacterial spectra of Fortimicin D and Fortimicin KE against various microorganisms.
(§2) (Minimum Inhibitory Concentration, γ/ml
(§3) measured by agar dilution method at pH 8.0)

Escherichia coli KY 8327 = test: as above; format: cell-based; conditions: for MIC: Escherichia coli
Description: as §1, §2, §3

[3] = test system: Shigella sonnei ATCC 9290; test: as above; format: cell-based; conditions: ATCC9290, pH 8.0, read-out: Minimum Inhibitory Concentration
Description: as §1, §2, §3

[4] = test system: Pseudomonas aeruginosa KY 8510; test: as above; format: cell-based; conditions: KY8510, pH 8.0, strain resistant to kanamycin, kanamycin B, tobramycin, gentamicin C1a and ribostamycin, read-out: Minimum Inhibitory Concentration
Description: as §1, §2, §3

[5] = test system: Pseudomonas aeruginosa BMH No. 1; test: as above; format: cell-based; conditions: BMHNO.1, pH 8.0, read-out: Minimum Inhibitory Concentration
Description: as §1, §2, §3

Escherichia coli ATCC 26 = test: as above; format: cell-based
Description: as §1, §2, §3

Escherichia coli KY 8315 = test: as above; format: cell-based
Description: as §1, §2, §3

[6] = test system: Bacillus subtilis No. 10707; test: as above; format: cell-based; conditions: pH 8.0, read-out: Minimum Inhibitory Concentration
Description: as §1, §2, §3

[7] = test system: Salmonella typhosa ATCC 9992; test: as above; format: cell-based; conditions: Salmonella enterica, pH 8, read-out: Minimum Inhibitory Concentration
Description: as §1, §2, §3

[8] = test system: Klebsiella pneumoniae ATCC 10031; test: as above; format: cell-based
Description: as §1, §2, §3

[9] = solubility of the free base; format: physicochemical; conditions: for solubility in organic solvents: chloroform, benzene, ethyl acetate, butyl acetate, ethyl ether, butanol, petroleum ether, n-hexane, etc., ordinary organic solvents; for solubility in ethanol and acetone / solubility in methanol / solubility in water: free base
[10] = test system: Gram-positive and Gram-negative bacteria; test: antibacterial spectrum, statement in words; format: cell-based
Description: as §1, §2, §3

[11] = stability in alkaline solution; format: physicochemical
[12] = Examples 2 and 3, before cellulose column chromatography
[13] = Examples 2 and 3, free base after cellulose column chromatography
[14] = Examples 4 and 5, purified preparate, Casamino acid medium
[15] = Table 5, purified preparate from Micromonospora olivoasterospora MK-70
[16] = Table 5, purified preparate from Micromonospora olivoasterospora MK-80
[17] = Table 5, purified preparate from Micromonospora olivoasterospora Mm 744
[18] = preparate of Example 1, strain CS-26, silica gel chromatography

Compound | activity ([1]; Examples 8 and 9, sulfate) | MIC [2] | MIC [3] | MIC [5] | MIC [6] | MIC [7] | solubility in organic solvents [9] | solubility in ethanol and acetone [9] | solubility in methanol [9] | solubility in water [9] | activity [1, 12] | activity [1, 13] | activity [1, 14] | activity [1, 15] | activity [1, 16] | activity [1, 17] | activity [1, 18] | antibacterial activity / spectrum [10] | also measured
COC1C(O)C(N)C(OC2OC(CN)CCC2N)C(O)C1N(C)C(=O)CN (stereo not shown) [Fortimicin D sulfate] | about 650 unit/mg |  |  |  |  |  |  |  |  |  |  |  |  |  |  |  |  |  | LD50 (LD50 for dd-mouse): 159 mg/kg
COC1C(O)C(N)C(OC2OC(CN)CCC2N)C(O)C1N(C)C(=O)CN (stereo not shown) [Fortimicin D] |  | 0.02 mg/L (≈ 0.0511 µM) | 0.3 mg/L (≈ 0.766 µM) | 5 mg/L (≈ 12.8 µM) | 0.02 mg/L (≈ 0.0511 µM) | 0.08 mg/L (≈ 0.204 µM) | poorly soluble; also recorded: insoluble | slightly soluble | soluble | readily soluble | about 840 unit/mg | 970 unit/mg | about 975 unit/mg | 985 unit/mg | 975 unit/mg | 990 unit/mg | about 980 unit/mg | strong antibacterial activity against a broad range of Gram-positive and Gram-negative bacteria | MIC (Escherichia coli KY 8327; KY8327, agar dilution method, pH 8.0, strain resistant to kanamycin, gentamicin and tobramycin, read-out: Minimum Inhibitory Concentration): 0.13 mg/L (≈ 0.332 µM); activity against resistant Escherichia coli (Escherichia coli KY 8327; certain strains of Escherichia coli resistant to kanamycin, gentamicin and tobramycin): effective against certain strains of Escherichia coli which are resistant to kanamycin, gentamicin and tobramycin; MIC [4]: 5 mg/L (≈ 12.8 µM); MIC (Escherichia coli ATCC 26; ATCC26, agar dilution method, pH 8.0, read-out: Minimum Inhibitory Concentration): 0.32 mg/L (≈ 0.817 µM); MIC (Escherichia coli KY 8315; KY8315, agar dilution method, pH 8.0, read-out: Minimum Inhibitory Concentration): 0.13 mg/L (≈ 0.332 µM); MIC ([8]; ATCC10031, agar dilution method, pH 8.0, read-out: Minimum Inhibitory Concentration): 0.08 mg/L (≈ 0.204 µM)
CNC1C(O)C(OC2OC(CN)CCC2N)C(N)C(O)C1OC (stereo not shown) [Fortimicin KE] |  | 1.65 mg/L (≈ 4.93 µM) | 26.1 mg/L (≈ 78 µM) | 208 mg/L (≈ 623 µM) | 104 mg/L (≈ 312 µM) | 13.1 mg/L (≈ 39.2 µM) | poorly soluble; also recorded: insoluble | slightly soluble | soluble | readily soluble | about 860 unit/mg | 980 unit/mg | about 985 unit/mg | 985 unit/mg | 980 unit/mg | 990 unit/mg | about 970 unit/mg | broad antibacterial spectrum | MIC (Escherichia coli KY 8327; KY8327, pH 8, read-out: Minimum Inhibitory Concentration): 26.1 mg/L (≈ 78 µM); MIC (Escherichia coli ATCC 26; ATCC26, pH 8, read-out: Minimum Inhibitory Concentration): 26.1 mg/L (≈ 78 µM); MIC (Escherichia coli KY 8315; KY8315, pH 8, read-out: Minimum Inhibitory Concentration): 26.1 mg/L (≈ 78 µM); MIC ([8]; ATCC10031, pH 8, read-out: Minimum Inhibitory Concentration): 26.1 mg/L (≈ 78 µM); stability in an alkaline solution [11]: stable in an alkaline solution; activity ([1]; Example 7, free base obtained from Fortimicin D with barium hydroxide): about 970 unit/mg
CNC1C(O)C(OC2OC(CN)CCC2N)C(N)C(O)C1OC (stereo not shown) [sulfate of Fortimicin KE] | about 610 unit/mg |  |  |  |  |  |  |  |  |  |  |  |  |  |  |  |  |  | 
